US20240067693A1, “POLYPEPTIDES AND USES THEREOF” (MEDIMMUNE LIMITED, priority 2020, published 2024)
Numbered stars: 1 amine (or outer) side, 2 acyl side, 3 side chain; on linkers, the order of the positions; unused ones are H or OH. Bridge positions count the residues as written; N and C are the ends. Square brackets hold non-standard residues; d marks the D form. Side chains are listed from the residue outwards. Peptide text beside a SMILES is read from it. * marks the point of attachment. C18 diacid = O=C(O)CCCCCCCCCCCCCCCCC(=O)*; γGlu = O=C(O)[C@H](CCC(=O)[*:2])N[*:1]; Aib = CC(C)(N)C(=O)O

Experiments:
[1] = target: T1, human amylin receptor (calcitonin receptor co-expressed with receptor activity modifying protein, RAMP3) (hAMYR3) (Homo sapiens, UniProt O60896+P30988); assay: cAMP production in 1321N1 cells with stable recombinant expression of human amylin receptor (hAMYR3); format: cell-based; conditions: for Ratio (selectivity hAMYR vs hCTR, ratio of EC50 values at the two receptors): EC50 hCTR / EC50 hAMYR3; for EC50: cAMP, 1321N1 cells, assay buffer with 0.1% BSA, read-out: EC50 (pM) hAMYR3
T1 construct: expressed in transfected cells
T1 sequence (P30988 25-474): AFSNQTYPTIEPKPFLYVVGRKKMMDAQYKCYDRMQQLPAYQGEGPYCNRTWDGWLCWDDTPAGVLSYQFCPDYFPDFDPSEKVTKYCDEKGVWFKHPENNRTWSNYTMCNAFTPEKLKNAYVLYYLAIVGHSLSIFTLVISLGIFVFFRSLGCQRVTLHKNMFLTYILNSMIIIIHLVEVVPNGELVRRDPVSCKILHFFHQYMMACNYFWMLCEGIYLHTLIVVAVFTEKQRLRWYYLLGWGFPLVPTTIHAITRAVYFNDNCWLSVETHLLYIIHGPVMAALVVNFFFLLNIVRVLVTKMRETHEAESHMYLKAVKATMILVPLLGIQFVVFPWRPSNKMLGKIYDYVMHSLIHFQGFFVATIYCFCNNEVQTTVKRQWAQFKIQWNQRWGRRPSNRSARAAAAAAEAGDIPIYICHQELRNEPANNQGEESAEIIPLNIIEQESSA
T1 sequence (O60896 24-148 partner): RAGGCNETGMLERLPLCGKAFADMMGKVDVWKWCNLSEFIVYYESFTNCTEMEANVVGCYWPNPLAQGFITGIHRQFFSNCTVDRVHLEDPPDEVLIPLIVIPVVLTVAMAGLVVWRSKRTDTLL
How it was run: (§1)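 Thawed cells in HBSS/0.1% BSA/25 mM HEPES pH 7.4 with 0.5 mM IBMX were incubated with peptides 30 min at room temperature; cAMP read by HTRF. EC50 from 4-parameter fit of % activation relative to maximal amylin or calcitonin effect.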

[2] = target: T2, human calcitonin receptor (hCTR) (Homo sapiens, UniProt P30988); assay: cAMP production in 1321N1 cells with stable recombinant expression of human calcitonin receptor (hCTR); format: cell-based; conditions: cAMP, 1321N1 cells, assay buffer with 0.1% BSA; read-out: EC50 (pM) hCTR
T2 construct: expressed in transfected cells
T2 sequence (P30988 25-474): T1 sequence (P30988 25-474)
How it was run: as §1

## CC[C@H](C)[C@H](NC(=O)[C@@H]1CCCN1C(=O)CNC(=O)[C@H](Cc1ccccc1)NC(=O)[C@H](CC(N)=O)NC(=O)C(C)(C)NC(=O)[C@H](CO)NC(=O)[C@H](CO)NC(=O)[C@H](Cc1c[nH]cn1)NC(=O)[C@@H](NC(=O)[C@H](CC(C)C)NC(=O)[C@H](Cc1ccccc1)NC(=O)[C@H](CC(N)=O)NC(=O)[C@H](C)NC(=O)[C@H](CC(C)C)NC(=O)[C@H](CCCNC(=N)N)NC(=O)[C@H](CCC(N)=O)NC(=O)[C@@H](NC(=O)[C@H](C)NC(=O)[C@@H]1CSSC[C@H](NC(=O)[C@H](CCCCN)NC(=O)[C@@H](N)CCCCNC(=O)CC[C@H](NC(=O)CCCCCCCCCCCCCCCCC(=O)O)C(=O)O)C(=O)N[C@@H](CC(N)=O)C(=O)N[C@@H]([C@@H](C)O)C(=O)N[C@@H](C)C(=O)N[C@@H]([C@@H](C)O)C(=O)N1)[C@@H](C)O)C(C)C)C(=O)N[C@@H](CC(C)C)C(=O)N1CCC[C@H]1C(=O)N1CCC[C@H]1C(=O)N[C@H](C(=O)N[C@@H](CC(N)=O)C(=O)N[C@H](C(=O)NCC(=O)N[C@@H](CO)C(=O)N[C@@H](CCCNC(=N)N)C(=O)N[C@H](C(=O)N[C@@H](Cc1ccc(O)cc1)C(N)=O)[C@@H](C)O)C(C)C)[C@@H](C)O [Peptide 73, K(γE-C18diacid)K[CNTATC]ATQRLANFLVHSS(Aib)NFGPILPPTNVGSRTY-amide] (H-K([γGlu-C18 diacid])KCNTATCATQRLANFLVHSS[Aib]NFGPILPPTNVGSRTY-NH2; disulfide 3-8; N-terminus assumed)
[1]
  Ratio (selectivity hAMYR vs hCTR, ratio of EC50 values at the two receptors): 7
  EC50: 256 pM
[2]
  EC50: 1820 pM

## CC[C@H](C)[C@H](NC(=O)[C@@H]1CCCN1C(=O)CNC(=O)[C@H](Cc1ccccc1)NC(=O)[C@H](CC(N)=O)NC(=O)C(C)(C)NC(=O)[C@H](CO)NC(=O)[C@H](CO)NC(=O)[C@H](Cc1c[nH]cn1)NC(=O)[C@@H](NC(=O)[C@H](CC(C)C)NC(=O)[C@H](Cc1ccccc1)NC(=O)[C@H](CC(N)=O)NC(=O)[C@H](C)NC(=O)[C@H](CC(C)C)NC(=O)[C@H](CCCNC(=N)N)NC(=O)[C@H](CCC(N)=O)NC(=O)[C@@H](NC(=O)[C@H](C)NC(=O)[C@@H]1CSSC[C@H](NC(=O)[C@H](CCCCN)NC(=O)[C@@H](N)CCCCNC(=O)CC[C@H](NC(=O)CC[C@H](NC(=O)CCCCCCCCCCCCCCCCC(=O)O)C(=O)O)C(=O)O)C(=O)N[C@@H](CC(N)=O)C(=O)N[C@@H]([C@@H](C)O)C(=O)N[C@@H](C)C(=O)N[C@@H]([C@@H](C)O)C(=O)N1)[C@@H](C)O)C(C)C)C(=O)N[C@@H](CC(C)C)C(=O)N1CCC[C@H]1C(=O)N1CCC[C@H]1C(=O)N[C@H](C(=O)N[C@@H](CC(N)=O)C(=O)N[C@H](C(=O)NCC(=O)N[C@@H](CO)C(=O)N[C@@H](CCCNC(=N)N)C(=O)N[C@H](C(=O)N[C@@H](Cc1ccc(O)cc1)C(N)=O)[C@@H](C)O)C(C)C)[C@@H](C)O [Peptide 74, K(γE-γE-C18diacid)K[CNTATC]ATQRLANFLVHSS(Aib)NFGPILPPTNVGSRTY-amide] (H-K([γGlu-γGlu-C18 diacid])KCNTATCATQRLANFLVHSS[Aib]NFGPILPPTNVGSRTY-NH2; disulfide 3-8; N-terminus assumed)
[1]
  Ratio (selectivity hAMYR vs hCTR, ratio of EC50 values at the two receptors): 13
  EC50: 356 pM
[2]
  EC50: 4570 pM

## CC[C@H](C)[C@H](NC(=O)[C@@H]1CCCN1C(=O)CNC(=O)[C@H](Cc1ccccc1)NC(=O)[C@H](CC(N)=O)NC(=O)C(C)(C)NC(=O)[C@H](CO)NC(=O)[C@H](CO)NC(=O)[C@H](Cc1c[nH]cn1)NC(=O)[C@H](CCCNC(=N)N)NC(=O)[C@H](CC(C)C)NC(=O)[C@H](Cc1ccccc1)NC(=O)[C@H](CC(N)=O)NC(=O)[C@H](C)NC(=O)[C@H](CC(C)C)NC(=O)[C@H](CCCNC(=N)N)NC(=O)[C@H](CCC(N)=O)NC(=O)[C@@H](NC(=O)[C@H](C)NC(=O)[C@@H]1CSSC[C@H](NC(=O)[C@@H](N)CCCCNC(=O)CC[C@H](NC(=O)CC[C@H](NC(=O)CCCCCCCCCCCCCCCCC(=O)O)C(=O)O)C(=O)O)C(=O)N[C@@H](CC(N)=O)C(=O)N[C@@H]([C@@H](C)O)C(=O)N[C@@H](C)C(=O)N[C@@H]([C@@H](C)O)C(=O)N1)[C@@H](C)O)C(=O)N[C@@H](CC(C)C)C(=O)N1CCC[C@H]1C(=O)N1CCC[C@H]1C(=O)N[C@H](C(=O)N[C@@H](CC(N)=O)C(=O)N[C@H](C(=O)NCC(=O)N[C@@H](CO)C(=O)N[C@@H](CC(N)=O)C(=O)N[C@H](C(=O)N[C@@H](Cc1ccc(O)cc1)C(N)=O)[C@@H](C)O)C(C)C)[C@@H](C)O [Peptide 75, K(γE-γE-C18diacid)[CNTATC]ATQRLANFLRHSS(Aib)NFGPILPPTNVGSNTY-amide] (H-K([γGlu-γGlu-C18 diacid])CNTATCATQRLANFLRHSS[Aib]NFGPILPPTNVGSNTY-NH2; disulfide 2-7)
[1]
  Ratio (selectivity hAMYR vs hCTR, ratio of EC50 values at the two receptors): 99
  EC50: 161 pM
[2]
  EC50: 16000 pM

## CC[C@H](C)[C@H](NC(=O)[C@@H]1CCCN1C(=O)CNC(=O)[C@H](Cc1ccccc1)NC(=O)[C@H](CC(N)=O)NC(=O)C(C)(C)NC(=O)[C@H](CO)NC(=O)[C@H](CO)NC(=O)[C@H](Cc1c[nH]cn1)NC(=O)[C@H](CCCNC(=N)N)NC(=O)[C@H](CC(C)C)NC(=O)[C@H](Cc1ccccc1)NC(=O)[C@H](CC(N)=O)NC(=O)[C@H](C)NC(=O)[C@H](CC(C)C)NC(=O)[C@H](CCCNC(=N)N)NC(=O)[C@H](CCC(N)=O)NC(=O)[C@@H](NC(=O)[C@H](C)NC(=O)[C@@H]1CSSC[C@H](NC(=O)[C@@H](N)CCCCNC(=O)CC[C@H](NC(=O)CCCCCCCCCCCCCCCCC(=O)O)C(=O)O)C(=O)N[C@@H](CC(N)=O)C(=O)N[C@@H]([C@@H](C)O)C(=O)N[C@@H](C)C(=O)N[C@@H]([C@@H](C)O)C(=O)N1)[C@@H](C)O)C(=O)N[C@@H](CC(C)C)C(=O)N1CCC[C@H]1C(=O)N1CCC[C@H]1C(=O)N[C@H](C(=O)N[C@@H](CCCNC(=N)N)C(=O)N[C@H](C(=O)NCC(=O)N[C@@H](CO)C(=O)N[C@@H](CC(N)=O)C(=O)N[C@H](C(=O)N[C@@H](Cc1ccc(O)cc1)C(N)=O)[C@@H](C)O)C(C)C)[C@@H](C)O [Peptide 76, K(γE-C18diacid)[CNTATC]ATQRLANFLRHSS(Aib)NFGPILPPTRVGSNTY-amide] (H-K([γGlu-C18 diacid])CNTATCATQRLANFLRHSS[Aib]NFGPILPPTRVGSNTY-NH2; disulfide 2-7; N-terminus assumed)
[1]
  Ratio (selectivity hAMYR vs hCTR, ratio of EC50 values at the two receptors): 107
  EC50: 209 pM
[2]
  EC50: 22300 pM
